Source: PMC6323793 (BMC Cancer, 2019)
Like-named read-outs stand apart in the source and are kept apart here.

Tests used:
recombinant human Cdc25A = biological target: T1, recombinant human Cdc25A (Homo sapiens, UniProt P30304); experiment: Cdc25A fluorometric phosphatase assay (OMFP substrate); format: biochemical
T1 construct: purchased CycLex CY-1352
T1 sequence (P30304 1-524): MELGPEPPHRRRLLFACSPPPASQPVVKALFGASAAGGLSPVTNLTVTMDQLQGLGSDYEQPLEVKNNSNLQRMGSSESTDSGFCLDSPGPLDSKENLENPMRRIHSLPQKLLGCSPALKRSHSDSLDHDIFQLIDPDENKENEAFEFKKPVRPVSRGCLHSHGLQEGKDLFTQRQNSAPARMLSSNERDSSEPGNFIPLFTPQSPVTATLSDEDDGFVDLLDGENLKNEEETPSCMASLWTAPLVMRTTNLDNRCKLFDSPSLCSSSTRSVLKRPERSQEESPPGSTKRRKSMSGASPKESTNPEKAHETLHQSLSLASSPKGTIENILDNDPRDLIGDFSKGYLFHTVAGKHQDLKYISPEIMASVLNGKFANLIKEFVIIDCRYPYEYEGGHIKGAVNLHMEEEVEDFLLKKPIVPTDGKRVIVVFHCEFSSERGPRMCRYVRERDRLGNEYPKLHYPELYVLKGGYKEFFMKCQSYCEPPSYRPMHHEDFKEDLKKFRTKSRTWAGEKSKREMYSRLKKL
Experimental: (§1) In summary, dual-specificity phosphatase activity was measured in a 96-well microtiter plate using O-methylfluorescein phosphate (OMFP) as a substrate. 5 μL (0.1 μg/μL) of purified recombinant Cdc25s (Cdc25A, -B and -C) was mixed with 40 μL of assay mixture and incubated with 5 μL of the test compound at various concentrations in a well. Then, 25 μL of stop solution was added. […] Menadione is a quinone-type inhibitor of Cdc25s that was used as a positive control here.

recombinant human Cdc25C = biological target: T2, recombinant human Cdc25C (Homo sapiens, UniProt P30307); experiment: Cdc25C fluorometric phosphatase assay (OMFP substrate); format: biochemical
T2 construct: purchased CycLex CY-1354
T2 sequence (P30307 1-473): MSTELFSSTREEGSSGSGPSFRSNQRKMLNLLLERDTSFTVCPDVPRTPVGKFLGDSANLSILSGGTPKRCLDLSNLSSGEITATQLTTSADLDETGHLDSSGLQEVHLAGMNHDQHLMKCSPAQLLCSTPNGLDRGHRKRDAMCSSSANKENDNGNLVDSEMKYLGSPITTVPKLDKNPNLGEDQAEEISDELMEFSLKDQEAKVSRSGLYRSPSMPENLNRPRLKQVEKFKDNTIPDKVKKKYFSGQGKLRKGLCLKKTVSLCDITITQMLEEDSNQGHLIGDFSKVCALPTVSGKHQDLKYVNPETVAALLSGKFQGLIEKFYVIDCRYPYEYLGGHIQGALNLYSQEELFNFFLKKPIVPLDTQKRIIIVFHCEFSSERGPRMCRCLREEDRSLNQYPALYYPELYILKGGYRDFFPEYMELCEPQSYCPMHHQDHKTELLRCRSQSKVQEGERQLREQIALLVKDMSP
Experimental: as §1

recombinant human Cdc25B = biological target: T3, recombinant human Cdc25B (Homo sapiens, UniProt P30305); experiment: Cdc25B fluorometric phosphatase assay (OMFP substrate); format: biochemical
T3 construct: purchased CycLex CY-1353
T3 sequence (P30305 1-580): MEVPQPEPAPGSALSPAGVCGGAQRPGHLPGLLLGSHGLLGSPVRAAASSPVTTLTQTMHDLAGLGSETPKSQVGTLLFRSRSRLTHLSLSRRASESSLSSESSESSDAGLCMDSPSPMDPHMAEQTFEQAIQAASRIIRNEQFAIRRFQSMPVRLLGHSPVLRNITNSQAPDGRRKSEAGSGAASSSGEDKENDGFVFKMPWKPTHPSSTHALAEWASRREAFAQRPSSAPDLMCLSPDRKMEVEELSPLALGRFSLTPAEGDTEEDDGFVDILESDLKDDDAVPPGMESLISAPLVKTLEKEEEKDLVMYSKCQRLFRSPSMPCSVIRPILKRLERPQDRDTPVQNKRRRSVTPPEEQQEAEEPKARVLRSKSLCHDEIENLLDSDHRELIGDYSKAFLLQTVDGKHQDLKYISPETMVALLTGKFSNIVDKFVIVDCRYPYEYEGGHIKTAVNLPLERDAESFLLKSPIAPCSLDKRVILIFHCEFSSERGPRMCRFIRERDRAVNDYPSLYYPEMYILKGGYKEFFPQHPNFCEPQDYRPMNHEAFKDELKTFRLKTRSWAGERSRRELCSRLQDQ
Experimental: Then, 25 μL of stop solution was added. Fluorescence was measured at an excitation wavelength of 485 nm and an emission wavelength of 530 nm using a fluorescence microplate reader (BioTek Instruments, Inc., Winooski, VT, USA). Menadione is a quinone-type inhibitor of Cdc25s that was used as a positive control here.

MCF-7 cells [1] = experiment: MTT anti-proliferation assay, MCF-7; conditions: Homo sapiens, MCF7, 48 h, read-out: IC50 MCF-7
tsFT210 cells [2] = experiment: MTT anti-proliferation assay, tsFT210; conditions: Mus musculus, tsFT210, 48 h, read-out: IC50 tsFT210
HeLa cells = experiment: MTT anti-proliferation assay, HeLa; conditions: Homo sapiens, 48 h, read-out: IC50 HeLa
MCF-7 cells [3] = experiment: Intracellular ROS assay (DCFH-DA) in MCF-7 cells; format: cell-based; conditions: 5 μM and 25 μM, 4 h, compared with control cells
Experimental: (§2) Reactive oxygen species (ROS) were detected with the fluorescent probe 2′,7′-dichlorofluorescin diacetate (DCFH-DA) as described by others. Briefly, MCF-7 cells or tsFT210 (synchronized at G2 phase) cells were plated in 96-well plates and loaded with 20 μM DCFH-DA for 30 min at 37 °C in culture medium. […] Untreated cells were used as control. Fluorescence was measured using a fluorescence microplate reader (BioTek Instruments, excitation wavelength: 485 nm, emission wavelength: 528 nm). The ROS levels were expressed as RFU (relative fluorescence unit).

tsFT210 cells [4] = experiment: Cell cycle analysis by flow cytometry; format: cell-based, mouse; conditions: synchronized tsFT210 cells released at 32 °C, treated for 6 h
Experimental: Cell cycle analysis was performed as described previously. […]. The harvested cells were stained with staining buffer (50 μg/ml propidium iodide, 0.1% sodium citrate and 0.2% NP-40) and analysed by Flow Cytometry (BD Biosciences). A final concentration of 0.5% DMSO was used for all compounds and as a negative control. Nocodazole, a potent mitotic blocker that arrests cells at the G2/M phase, was used as a positive control at a concentration of 100 nM.

tsFT210 cells [5] = experiment: Intracellular ROS assay (DCFH-DA) in tsFT210 cells; format: cell-based, mouse; conditions: tsFT210 cells synchronized at G2 phase, 5 μM and 25 μM, 4 h, compared with control cells
Experimental: as §2

K562 cells = experiment: MTT anti-proliferation assay, K562; conditions: Homo sapiens, K562, 48 h, read-out: IC50 K562
K562 xenograft tumour = experiment: K562 xenograph tumour model in mice; format: in vivo, mouse
Experimental: (§3) The mouse model was constructed according to our previous work. Balb/c mice (female, 5 weeks old), purchased from Shanghai SLAC Laboratory Animal Co., LTD (Shanghai, China), were subcutaneously injected into a 100 μL K562 cell suspension (5 × 10^6/mL, PBS) in the right flank of mice. […] The long and short dimensions of tumour size were measured by a digital calliper at days 1, 4, 8, 11, 16, 21, and 24 after treatment. The volume was calculated with the formula (long dimension) × (short dimension)^2/2. The mice were euthanized 2 days after the last treatment by the method of cervical dislocation.

[6] = tested on: phosphorylated CDK1 in primary tumour tissues; experiment: Phosphorylated CDK1 in tumour tissue of K562-bearing mice; format: in vivo, mouse; conditions: especially the 5 and 10 mg/kg groups, vs control group
Experimental: (§4) The phosphorylation status of CDK1 was analysed by Western blotting as described in our previous work. […] The protein concentration in cell lysates was confirmed by the Bradford method. Fifty micrograms of protein per lane was resolved on 10% SDS polyacrylamide gels, and the bands were transferred to PVDF membranes (Millipore). Nonspecific reactivity was blocked by 5% non-fat milk prepared in TBST (10 mM Tris, 150 mM NaCl, 0.05% Tween-20, pH 7.5) at room temperature for 1 h. The protein signals were captured with primary antibodies and the secondary antibodies according to the manufacturers’ instructions. In this process, the protein β-actin was used to normalize target protein. All antibodies used in this paper were purchased from Cell Signaling Technology (Inc, China).
as §3

[7] = tested on: CDK1 (tyrosine 15 phosphorylation) in tsFT210 cells; experiment: Western blot of CDK1 phosphorylation status in cells; format: cell-based, mouse; conditions: cells in G2/M phase, 1 μM, 5 μM and 25 μM, 4 h
Experimental: as §4

[8] = recombinant human phosphatase, OMFP substrate, mean ± S.E.M., read-out: IC50 Cdc25A
[9] = recombinant human phosphatase, OMFP substrate, mean ± S.E.M., read-out: IC50 Cdc25C
[10] = recombinant human phosphatase, OMFP substrate, mean ± S.E.M., read-out: IC50 Cdc25B

Row | Structure (SMILES) | IC50 (recombinant human Cdc25A) [µM] | IC50 (recombinant human Cdc25C) [µM] | IC50 (recombinant human Cdc25B) [µM] | IC50 (recombinant human Cdc25A; [8]) [µM] | IC50 (recombinant human Cdc25C; [9]) [µM] | further results
1 | CC1=CC(=O)c2ccccc2C1=O [menadione, reference compound] | 4.12 ± 0.87 | 5.13 ± 0.24 | 5.37 ± 0.45 | – | – | –
2 | CCC(C)C(=O)O[C@H](CC=C(C)C)C1=CC(=O)c2c(O)ccc(O)c2C1=O (stereo partly drawn) [α-Methyl-η-butylshikonin] | – | – | – | 11.2 ± 1.45 | 13.5 ± 1.45 | IC50 (recombinant human Cdc25B; [10]): 14.3 ± 1.27 µM
3 | CC(=O)O[C@H](CC=C(C)C)C1=CC(=O)c2c(O)ccc(O)c2C1=O [Acetylshikonin] | 3.92 ± 0.66 | 4.67 ± 0.34 | 3.87 ± 0.68 | – | – | –
4 | CC(C)=CCC(OC(=O)C=C(C)C)C1=CC(=O)c2c(O)ccc(O)c2C1=O (stereo not drawn) [β,β-Dimethylacrylshikonin] | – | – | – | 4.67 ± 0.85 | – | IC50 (recombinant human Cdc25B; [10]): 8.56 ± 0.67 µM
5 | COc1cccc2c1C(=O)c1c(O)c3c(c(O)c1C2=O)C[C@@](O)(C(=O)CO)C[C@@H]3O[C@H]1C[C@H](N)[C@H](O)[C@H](C)O1 [Doxorubicin, reference compound] | – | – | – | – | – | IC50 (MCF-7 cells [1]): 0.28 ± 0.03 µM; IC50 (tsFT210 cells [2]): 0.56 ± 0.14 µM; IC50 (HeLa cells): 0.43 ± 0.06 µM
6 | CC(C)=CCC(OC(=O)CC(C)C)C1=CC(=O)c2c(O)ccc(O)c2C1=O (centres unmarked) [Isovalerylshikonin] | – | – | – | 9.53 ± 0.78 | 11 ± 0.97 | –
7 | CC(C)=CC[C@@H](O)C1=CC(=O)c2c(O)ccc(O)c2C1=O [Shikonin] | 2.14 ± 0.21 | 4.78 ± 0.18 | – | – | – | Intracellular ROS (MCF-7 cells [3]): increased significantly; Effect on cell cycle progression (tsFT210 cells [4]): blocked at the G2/M phase in a concentration-dependent manner; Intracellular ROS (tsFT210 cells [5]): increased significantly; IC50 (K562 cells): 6.15 ± 0.46 µM; IC50 (MCF-7 cells [1]): 6.82 ± 0.76 µM; Tumour growth (K562 xenograft tumour; K562-bearing mice, 1, 5, or 10 mg/kg every other day, 21 days, vs vehicle): concentration-dependently inhibited tumour growth; Survival (Kaplan-Meier) (K562 xenograft tumour; K562-bearing mice, 1, 5, or 10 mg/kg, vs control group): prolonged; IC50 (tsFT210 cells [2]): 8.97 ± 0.87 µM; Protein levels of phosphorylated CDK1 in primary tumour tissues [6]: significantly increased; Phosphorylation status of CDK1 (Western blot) [7]: induced an accumulation of the tyrosine 15-phosphorylated form of CDK1; IC50 (HeLa cells): 9.56 ± 1.03 µM
8 | CC(C)=CCCC1=CC(=O)c2c(O)ccc(O)c2C1=O [Deoxyshikonin] | 3.22 ± 0.76 | 6.33 ± 0.65 | 7.32 ± 0.45 | – | – | –
9 | COC(=O)Nc1nc2ccc(C(=O)c3cccs3)cc2[nH]1 [Nocodazole, reference compound] | – | – | – | – | – | Effect on cell cycle progression (tsFT210 cells [4]): arrested the cells at the G2/M phase
10 | CC(C)=CC[C@@H](OC(=O)C(C)C)C1=CC(=O)c2c(O)ccc(O)c2C1=O [Isobutylshikonin] | – | – | – | 6.79 ± 1.02 | 5.89 ± 0.43 | –
